Experimental data reported in patent US20240415914A1, “Water Dispersible Cannabinoid Compositions” (priority 2021, published 2024).
Where two headings read alike, the source gives them in different places.

Columns and labels:
[1] = type: physicochemical; conditions: stored at room temperature (21-25° C.)
Description: At each time period, 0.05 g of powder was dissolved in 10 ml-15 of ethanol, diluted to fall within the analytical range, and injected into the LCMSMS for analysis.

[2] = Stability of cannabinoid and Vitamin E components of Beverage 2 (AB Red) stored at 8° C. and 21-25° C., LCMSMS over 570 days
Description: The LCMSMS was calibrated for 0-50 ng/ml cannabinoids with the same resin material used in the preparation of the concentrates. At each time period, 100 μml of beverage was diluted with 10 ml of methanol and injected into the LCMSMS for analysis.

CCCCCc1cc(O)c2c(c1)OC(C)(CCC=C(C)C)C=C2 (stereo not shown) [CBC, cannabichromene]
Stability in Powder Concentrate (content by LCMSMS) ([1]; day 0): 0.070 mg/g powder
Stability in Powder Concentrate (content by LCMSMS) ([1]; day 1): 0.072 mg/g powder
Stability in Powder Concentrate (content by LCMSMS) ([1]; day 2): 0.071 mg/g powder
Stability in Powder Concentrate (content by LCMSMS) ([1]; day 3): 0.073 mg/g powder
Stability in Powder Concentrate (content by LCMSMS) ([1]; day 5): 0.070 mg/g powder
Stability in Powder Concentrate (content by LCMSMS) ([1]; day 8): 0.071 mg/g powder
Stability in Powder Concentrate (content by LCMSMS) ([1]; day 9): 0.068 mg/g powder
Stability in Powder Concentrate (content by LCMSMS) ([1]; day 10): 0.071 mg/g powder
Stability in Powder Concentrate (content by LCMSMS) ([1]; day 11): 0.071 mg/g powder
Stability in Powder Concentrate (content by LCMSMS) ([1]; day 12): 0.069 mg/g powder
Stability in Powder Concentrate (content by LCMSMS) ([1]; day 15): 0.073 mg/g powder
Stability in Powder Concentrate (content by LCMSMS) ([1]; day 16): 0.073 mg/g powder
Stability in Powder Concentrate (content by LCMSMS) ([1]; day 17): 0.070 mg/g powder
Stability in Powder Concentrate (content by LCMSMS) ([1]; day 18): 0.072 mg/g powder
Stability in Powder Concentrate (content by LCMSMS) ([1]; day 19): 0.070 mg/g powder
Stability in Powder Concentrate (content by LCMSMS) ([1]; day 22): 0.071 mg/g powder
Stability in Powder Concentrate (content by LCMSMS) ([1]; day 23): 0.069 mg/g powder
Stability in Powder Concentrate (content by LCMSMS) ([1]; day 24): 0.068 mg/g powder
Stability in Powder Concentrate (content by LCMSMS) ([1]; day 25): 0.072 mg/g powder
Stability in Powder Concentrate (content by LCMSMS) ([1]; day 26): 0.071 mg/g powder
Stability in Powder Concentrate (content by LCMSMS) ([1]; day 29): 0.069 mg/g powder
Stability in Powder Concentrate (content by LCMSMS) ([1]; day 30): 0.072 mg/g powder
Stability in Powder Concentrate (content by LCMSMS) ([1]; day 60): 0.068 mg/g powder
Stability in Powder Concentrate (content by LCMSMS) ([1]; day 90): 0.068 mg/g powder
Stability in Powder Concentrate (content by LCMSMS) ([1]; day 120): 0.072 mg/g powder
Stability in Powder Concentrate (content by LCMSMS) ([1]; day 150): 0.072 mg/g powder
Stability in Powder Concentrate (content by LCMSMS) ([1]; day 180): 0.071 mg/g powder
Stability in Powder Concentrate (content by LCMSMS) ([1]; day 210): 0.072 mg/g powder
Stability in Powder Concentrate (content by LCMSMS) ([1]; day 240): 0.068 mg/g powder
Stability in Powder Concentrate (content by LCMSMS) ([1]; day 270): 0.072 mg/g powder
Stability in Powder Concentrate (content by LCMSMS) ([1]; day 300): 0.071 mg/g powder
Stability in Powder Concentrate (content by LCMSMS) ([1]; day 330): 0.069 mg/g powder
Stability in Powder Concentrate (content by LCMSMS) ([1]; day 360): 0.068 mg/g powder
Stability in Powder Concentrate (content by LCMSMS) ([1]; day 390): 0.068 mg/g powder
Stability in Powder Concentrate (content by LCMSMS) ([1]; day 420): 0.069 mg/g powder
Stability in Powder Concentrate (content by LCMSMS) ([1]; day 450): 0.073 mg/g powder
Stability in Powder Concentrate (content by LCMSMS) ([1]; day 480): 0.071 mg/g powder
Stability in Powder Concentrate (content by LCMSMS) ([1]; day 510): 0.069 mg/g powder
Stability in Powder Concentrate (content by LCMSMS) ([1]; day 540): 0.070 mg/g powder
Stability in Powder Concentrate (content by LCMSMS) ([1]; day 570): 0.069 mg/g powder
Stability of Cannabinoids in AB Red ([2]; 8° C., 0 days): 0.290 µg/mL
Stability of Cannabinoids in AB Red ([2]; 8° C., 1 days): 0.289 µg/mL
Stability of Cannabinoids in AB Red ([2]; 8° C., 2 days): 0.292 µg/mL
Stability of Cannabinoids in AB Red ([2]; 8° C., 3 days): 0.285 µg/mL
Stability of Cannabinoids in AB Red ([2]; 8° C., 5 days): 0.286 µg/mL
Stability of Cannabinoids in AB Red ([2]; 8° C., 8 days): 0.286 µg/mL
Stability of Cannabinoids in AB Red ([2]; 8° C., 9 days): 0.288 µg/mL
Stability of Cannabinoids in AB Red ([2]; 8° C., 10 days): 0.288 µg/mL
Stability of Cannabinoids in AB Red ([2]; 8° C., 11 days): 0.284 µg/mL
Stability of Cannabinoids in AB Red ([2]; 8° C., 12 days): 0.285 µg/mL
Stability of Cannabinoids in AB Red ([2]; 8° C., 15 days): 0.292 µg/mL
Stability of Cannabinoids in AB Red ([2]; 8° C., 16 days): 0.283 µg/mL
Stability of Cannabinoids in AB Red ([2]; 8° C., 17 days): 0.282 µg/mL
Stability of Cannabinoids in AB Red ([2]; 8° C., 18 days): 0.289 µg/mL
Stability of Cannabinoids in AB Red ([2]; 8° C., 19 days): 0.287 µg/mL
Stability of Cannabinoids in AB Red ([2]; 8° C., 22 days): 0.287 µg/mL
Stability of Cannabinoids in AB Red ([2]; 8° C., 23 days): 0.287 µg/mL
Stability of Cannabinoids in AB Red ([2]; 8° C., 24 days): 0.291 µg/mL
Stability of Cannabinoids in AB Red ([2]; 8° C., 25 days): 0.287 µg/mL
Stability of Cannabinoids in AB Red ([2]; 8° C., 26 days): 0.287 µg/mL
Stability of Cannabinoids in AB Red ([2]; 8° C., 29 days): 0.284 µg/mL
Stability of Cannabinoids in AB Red ([2]; 8° C., 30 days): 0.282 µg/mL
Stability of Cannabinoids in AB Red ([2]; 8° C., 60 days): 0.278 µg/mL
Stability of Cannabinoids in AB Red ([2]; 8° C., 90 days): 0.287 µg/mL
Stability of Cannabinoids in AB Red ([2]; 8° C., 120 days): 0.289 µg/mL
Stability of Cannabinoids in AB Red ([2]; 8° C., 150 days): 0.281 µg/mL
Stability of Cannabinoids in AB Red ([2]; 8° C., 180 days): 0.285 µg/mL
Stability of Cannabinoids in AB Red ([2]; 8° C., 210 days): 0.282 µg/mL
Stability of Cannabinoids in AB Red ([2]; 8° C., 240 days): 0.280 µg/mL
Stability of Cannabinoids in AB Red ([2]; 8° C., 270 days): 0.284 µg/mL
Stability of Cannabinoids in AB Red ([2]; 8° C., 300 days): 0.280 µg/mL
Stability of Cannabinoids in AB Red ([2]; 8° C., 330 days): 0.278 µg/mL
Stability of Cannabinoids in AB Red ([2]; 8° C., 390 days): 0.282 µg/mL
Stability of Cannabinoids in AB Red ([2]; 8° C., 420 days): 0.277 µg/mL
Stability of Cannabinoids in AB Red ([2]; 8° C., 450 days): 0.282 µg/mL
Stability of Cannabinoids in AB Red ([2]; 8° C., 480 days): 0.274 µg/mL
Stability of Cannabinoids in AB Red ([2]; 8° C., 510 days): 0.267 µg/mL
Stability of Cannabinoids in AB Red ([2]; 8° C., 540 days): 0.271 µg/mL
Stability of Cannabinoids in AB Red ([2]; 8° C., 570 days): 0.266 µg/mL
Stability of Cannabinoids in AB Red ([2]; 21-25° C., 0 days): 0.29 µg/mL
Stability of Cannabinoids in AB Red ([2]; 21-25° C., 1 days): 0.28 µg/mL
Stability of Cannabinoids in AB Red ([2]; 21-25° C., 2 days): 0.28 µg/mL
Stability of Cannabinoids in AB Red ([2]; 21-25° C., 3 days): 0.29 µg/mL
Stability of Cannabinoids in AB Red ([2]; 21-25° C., 5 days): 0.28 µg/mL
Stability of Cannabinoids in AB Red ([2]; 21-25° C., 8 days): 0.28 µg/mL
Stability of Cannabinoids in AB Red ([2]; 21-25° C., 9 days): 0.28 µg/mL
Stability of Cannabinoids in AB Red ([2]; 21-25° C., 10 days): 0.29 µg/mL
Stability of Cannabinoids in AB Red ([2]; 21-25° C., 11 days): 0.29 µg/mL
Stability of Cannabinoids in AB Red ([2]; 21-25° C., 12 days): 0.28 µg/mL
Stability of Cannabinoids in AB Red ([2]; 21-25° C., 15 days): 0.28 µg/mL
Stability of Cannabinoids in AB Red ([2]; 21-25° C., 16 days): 0.28 µg/mL
Stability of Cannabinoids in AB Red ([2]; 21-25° C., 17 days): 0.28 µg/mL
Stability of Cannabinoids in AB Red ([2]; 21-25° C., 18 days): 0.29 µg/mL
Stability of Cannabinoids in AB Red ([2]; 21-25° C., 19 days): 0.29 µg/mL
Stability of Cannabinoids in AB Red ([2]; 21-25° C., 22 days): 0.29 µg/mL
Stability of Cannabinoids in AB Red ([2]; 21-25° C., 23 days): 0.28 µg/mL
Stability of Cannabinoids in AB Red ([2]; 21-25° C., 24 days): 0.29 µg/mL
Stability of Cannabinoids in AB Red ([2]; 21-25° C., 25 days): 0.28 µg/mL
Stability of Cannabinoids in AB Red ([2]; 21-25° C., 26 days): 0.28 µg/mL
Stability of Cannabinoids in AB Red ([2]; 21-25° C., 29 days): 0.29 µg/mL
Stability of Cannabinoids in AB Red ([2]; 21-25° C., 30 days): 0.29 µg/mL
Stability of Cannabinoids in AB Red ([2]; 21-25° C., 60 days): 0.29 µg/mL
Stability of Cannabinoids in AB Red ([2]; 21-25° C., 90 days): 0.28 µg/mL
Stability of Cannabinoids in AB Red ([2]; 21-25° C., 120 days): 0.29 µg/mL
Stability of Cannabinoids in AB Red ([2]; 21-25° C., 150 days): 0.29 µg/mL
Stability of Cannabinoids in AB Red ([2]; 21-25° C., 180 days): 0.28 µg/mL
Stability of Cannabinoids in AB Red ([2]; 21-25° C., 210 days): 0.29 µg/mL
Stability of Cannabinoids in AB Red ([2]; 21-25° C., 240 days): 0.28 µg/mL
Stability of Cannabinoids in AB Red ([2]; 21-25° C., 270 days): 0.29 µg/mL
Stability of Cannabinoids in AB Red ([2]; 21-25° C., 300 days): 0.29 µg/mL
Stability of Cannabinoids in AB Red ([2]; 21-25° C., 330 days): 0.29 µg/mL
Stability of Cannabinoids in AB Red ([2]; 21-25° C., 390 days): 0.28 µg/mL
Stability of Cannabinoids in AB Red ([2]; 21-25° C., 420 days): 0.28 µg/mL
Stability of Cannabinoids in AB Red ([2]; 21-25° C., 450 days): 0.28 µg/mL
Stability of Cannabinoids in AB Red ([2]; 21-25° C., 480 days): 0.28 µg/mL
Stability of Cannabinoids in AB Red ([2]; 21-25° C., 510 days): 0.27 µg/mL
Stability of Cannabinoids in AB Red ([2]; 21-25° C., 540 days): 0.28 µg/mL
Stability of Cannabinoids in AB Red ([2]; 21-25° C., 570 days): 0.27 µg/mL
